One series relates to MCF7. Nature of the series: Viability of MCF7 cells by MTS assay. The series is classed as functional, cell-based. To be noted: Homo sapiens.
Series [1] deals with T1, Heat shock protein HSP90 (Homo sapiens, UniProt P07900+P08238). Nature of the series: Ability to degrade Her2 in MCF7 cells. In kind it is functional, cell-based.
Series [2] in a line: Solubility in simulated intestinal fluid at pH 6.5. The series is classed as physicochemical.
Series [3] in a line: Solubility in Balb/C mouse serum at pH 7.4. In kind it is ADME, cell-free.
A short description of series [4]: Solubility in simulated gastric fluid at pH 2.0. The series is classed as physicochemical.
Series [5] addresses T1, Heat shock protein HSP90. To be noted: mcf7.
Description: Binding affinity to Hsp90 in MCF7 cell lysate
A further series has as its system Mus musculus. In words: AUC in Balb/C mouse at 100 mg/kg, po. The series is classed as ADME, organism-based, Plasma. Also on record: dose 100 mg/kg, route oral. To be noted: in vivo.
Series [6] can be described thus: Cmax in Balb/C mouse at 100 mg/kg, po. The series is classed as ADME, organism-based. More on the design: dose 100 mg/kg, route oral. Conditions: in vivo.
Another series deals with NCI-N87. In words: Inhibition of N87 cell line xenografted in mouse at 200 mg/kg, po. In kind it is functional, Homo sapiens. Conditions: read-out: TGI.

The text below walks through data of ChEMBL document CHEMBL1146181, “7'-substituted benzothiazolothio- and pyridinothiazolothio-purines as potent heat shock protein 90 inhibitors” (J Med Chem, 2006).

In brackets after ≈: the same amount, converted by molar mass.

In turn, `Nc1ncnc2c1nc(Sc1nc3cccc(Cl)c3s1)n2CCO` gave an EC50 with MCF7 of 0.7 µM. At Heat shock protein HSP90 [1], the IC50 was found to be 0.3 µM.

With `CC(C)(C)NCCCn1c(Sc2nc3cccc(Cl)c3s2)nc2c(N)ncnc21`, the solubility in series [2] is 138 µg/mL (≈ 307 µM); in series [3] it was 199 µg/mL (≈ 444 µM). For the same molecule, a half-maximal response with MCF7 (EC50) required 0.2 µM. For the same molecule, the IC50 against Heat shock protein HSP90 [1] was found to be 0.15 µM.

In turn, `CCCCn1c(Sc2nc3c(Cl)cccc3s2)nc2c(N)ncnc21` came in with an EC50 in the series with MCF7 of 20 µM. This molecule also had an IC50 on Heat shock protein HSP90 [1] of 15 µM.

In the case of `CC(=O)OCCCn1c(Sc2nc3cccc(Cl)c3s2)nc2c(N)ncnc21`, the solubility in series [2] was 16 µg/mL (≈ 36.8 µM); in series [4], 220 µg/mL (≈ 506 µM); in series [3], 9 µg/mL (≈ 20.7 µM). The EC50 with MCF7 was 0.2 µM; at Heat shock protein HSP90 [5] it was 0.16 µM. In addition, the half-maximal inhibitory concentration (IC50) against Heat shock protein HSP90 [1] was 0.09 µM. Moreover, the AUC with Mus musculus was determined as 1040 ng·h/mL.

On to `CCOP(=O)(CCn1c(Sc2nc3cncc(Br)c3s2)nc2c(N)ncnc21)OCC`, for which the EC50 in the series with MCF7 amounted to 0.1 µM.

Take `CCOP(=O)(CCn1c(Sc2nc3cncc(Cl)c3s2)nc2c(N)ncnc21)OCC`: the solubility in series [2] is 38.3 µg/mL (≈ 76.6 µM); in [4], 124 µg/mL (≈ 248 µM); in series [3], 14 µg/mL (≈ 28 µM). Further, the concentration for a half-maximal effect (EC50) in the series on MCF7 came out at 0.25 µM.

With `CCCCn1c(Sc2nc3ccccc3s2)nc2c(N)ncnc21`, the EC50 in the series on MCF7 amounted to 10 µM. The IC50 at Heat shock protein HSP90 [1] is 5 µM.

In the series on MCF7, `CCCCn1c(Sc2nc3cc(Cl)ccc3s2)nc2c(N)ncnc21` showed an EC50 of 20 µM. The molecule also came in with an IC50 against Heat shock protein HSP90 [1] of 20 µM.

The molecule `CCCCn1c(Sc2nc3cccc(Cl)c3s2)nc2c(N)ncnc21` had an EC50 with MCF7 of 0.25 µM. Also, the IC50 against Heat shock protein HSP90 [1] came to 0.18 µM.

In the series on MCF7, `CCCCn1c(Sc2nc3cccc(OCC)c3s2)nc2c(N)ncnc21` had an EC50 of 16 µM. At Heat shock protein HSP90 [1], this molecule came in with an IC50 of 100 µM.

In the case of `CCCCn1c(Sc2nc3cccc(F)c3s2)nc2c(N)ncnc21`, the EC50 in the series on MCF7 was found to be 1 µM. At Heat shock protein HSP90 [1], this molecule showed an IC50 of 0.2 µM.

With `CCCCn1c(Sc2nc3ccc(Cl)c(Cl)c3s2)nc2c(N)ncnc21`, the EC50 in the series with MCF7 is 20 µM. Further, the IC50 at Heat shock protein HSP90 [1] was determined as 25 µM.

With `CC(C)(C)CNCCn1c(Sc2nc3cccc(Cl)c3s2)nc2c(N)ncnc21`, in the series with MCF7, the EC50 was 0.03 µM. Besides, the IC50 at Heat shock protein HSP90 [1] came to 0.035 µM. For the same molecule, in series [3], the solubility worked out at 4.9 µg/mL (≈ 10.9 µM).

As for `Nc1ncnc2c1nc(Sc1nc3cccc(Cl)c3s1)n2CCNC1CC1`, the solubility was 21 µg/mL (≈ 50.2 µM) in series [2], 245 µg/mL (≈ 586 µM) in series [4] and 59 µg/mL (≈ 141 µM) in series [3]. Moreover, the EC50 in the series on MCF7 stood at 0.3 µM; on Heat shock protein HSP90 [5] it was 0.13 µM. The molecule further had a half-maximal inhibitory concentration (IC50) on Heat shock protein HSP90 [1] of 0.11 µM. In addition, the AUC in the series on Mus musculus was 7310 ng·h/mL. Further, in [6], the Cmax was determined as 4510 ng/mL. For the same molecule, the inhibition in vivo at 200 mg/kg in the series with NCI-N87 came out at 56%.

The molecule `CC(=O)OCCCn1c(Sc2nc3cncc(Cl)c3s2)nc2c(N)ncnc21` registered an EC50 with MCF7 of 1 µM. Besides, the IC50 at Heat shock protein HSP90 [1] came out at 0.17 µM.

Turning to `CCCCn1c(Sc2nc3cncc(Br)c3s2)nc2c(N)ncnc21`, the EC50 in the series on MCF7 was determined as 4 µM. The molecule further yielded an IC50 at Heat shock protein HSP90 [1] of 0.4 µM.

With `CCOP(=O)(CCn1c(Sc2nc3cccc(Cl)c3s2)nc2c(N)ncnc21)OCC`, the concentration in solution in series [4] (solubility) was 98.5 µg/mL (≈ 197 µM).

On to `CC(=O)OCCCCn1c(Sc2nc3cccc(Cl)c3s2)nc2c(N)ncnc21`, for which the figures for the solubility in [2] and in series [4] were 3 µg/mL (≈ 6.68 µM) and 46 µg/mL (≈ 102 µM), respectively. Also, the values for the EC50 with MCF7 and at Heat shock protein HSP90 [5] were 0.24 µM and 0.14 µM, respectively. For the same molecule, the IC50 on Heat shock protein HSP90 [1] was determined as 0.13 µM.

Regarding `CCCCn1c(Sc2nc3ccc(Cl)cc3s2)nc2c(N)ncnc21`, a half-maximal effect in the series on MCF7 (EC50) was put at 20 µM. Also, the IC50 against Heat shock protein HSP90 [1] worked out at 7 µM.

In the case of `CCCCn1c(Sc2nc3cncc(Cl)c3s2)nc2c(N)ncnc21`, the response in the series with MCF7 was half-maximal at 1 µM (EC50). Also, on Heat shock protein HSP90 [1], the IC50 came to 0.28 µM.

Turning to `Nc1ncnc2c1nc(Sc1nc3cccc(Cl)c3s1)n2CCN1CCOCC1`, the EC50 amounted to 0.3 µM in the series with MCF7 and 0.15 µM on Heat shock protein HSP90 [5]. The same molecule returned an IC50 at Heat shock protein HSP90 [1] of 0.25 µM.

For `CCCn1c(Sc2nc3cccc(Cl)c3s2)nc2c(N)ncnc21`, the EC50 in the series on MCF7 is 0.85 µM. The IC50 at Heat shock protein HSP90 [1] turned out to be 0.25 µM.

`Nc1ncnc2c1nc(Sc1nc3cccc(Cl)c3s1)n2CCCO` had an EC50 in the series on MCF7 of 0.25 µM. The IC50 against Heat shock protein HSP90 [1] came to 0.15 µM.

In the series with MCF7, `Nc1ncnc2c1nc(Sc1nc3cccc(Cl)c3s1)n2CCCCO` came in with an EC50 of 0.2 µM. This molecule yielded an IC50 at Heat shock protein HSP90 [1] of 0.15 µM.

The molecule `CC(C)(C)NCCn1c(Sc2nc3cccc(Cl)c3s2)nc2c(N)ncnc21` displayed a 50% effective concentration (EC50) in the series with MCF7 of 0.3 µM. Moreover, the IC50 at Heat shock protein HSP90 [1] worked out at 0.14 µM.

Turning to `N#CCCCCn1c(Sc2nc3cccc(Cl)c3s2)nc2c(N)ncnc21`, the solubility in series [2] was 4.4 µg/mL (≈ 10.6 µM); in series [4] it was 58.7 µg/mL (≈ 141 µM); in series [3], 31.3 µg/mL (≈ 75.3 µM). In addition, the EC50 was determined as 0.3 µM in the series on MCF7 and 0.1 µM on Heat shock protein HSP90 [5]. The molecule further displayed an IC50 against Heat shock protein HSP90 [1] of 0.11 µM.

Regarding `CCCCn1c(Sc2nc3cccc(OC)c3s2)nc2c(N)ncnc21`, the solubility in [2] was 2 µg/mL (≈ 5.17 µM); in [4], 35 µg/mL (≈ 90.6 µM); in series [3], 18 µg/mL (≈ 46.6 µM). The figures for the EC50 in the series on MCF7 and at Heat shock protein HSP90 [5] were 0.23 µM and 0.2 µM, respectively. Further, the IC50 against Heat shock protein HSP90 [1] came to 0.19 µM.

Turning to `CCCCn1c(Sc2nc3cccc(C)c3s2)nc2c(N)ncnc21`, the response in the series on MCF7 was half-maximal at 1.3 µM (EC50). Besides, at Heat shock protein HSP90 [1], the IC50 was 0.3 µM.

In the series with MCF7, `CC(C)NCCCn1c(Sc2nc3cccc(Cl)c3s2)nc2c(N)ncnc21` gave an EC50 of 0.5 µM. The molecule also registered an IC50 at Heat shock protein HSP90 [1] of 0.17 µM.

As to `CCCCn1c(Sc2nc3cccc(Br)c3s2)nc2c(N)ncnc21`, the EC50 with MCF7 came to 2 µM. This molecule registered an IC50 against Heat shock protein HSP90 [1] of 0.33 µM.

In the case of `CCCCCn1c(Sc2nc3cccc(Cl)c3s2)nc2c(N)ncnc21`, a half-maximal effect in the series on MCF7 (EC50) was put at 6 µM. The molecule also registered an IC50 on Heat shock protein HSP90 [1] of 0.7 µM.

With `CCn1c(Sc2nc3cccc(Cl)c3s2)nc2c(N)ncnc21`, in the series with MCF7, the EC50 was 0.8 µM. Moreover, the IC50 against Heat shock protein HSP90 [1] was 0.2 µM.

In the series on MCF7, `CC(=O)OCCn1c(Sc2nc3cccc(Cl)c3s2)nc2c(N)ncnc21` came in with an EC50 of 0.3 µM. On Heat shock protein HSP90 [1], this molecule registered an IC50 of 0.15 µM.
